From patent publication US10662146B2, “Prodrugs of fencamfamine” (Praxis Bioresearch, LLC, priority 2015, dated 2020)
Where two headings read alike, the source gives them in different places.

What was measured:
[1] = Single dose oral PK study in male Sprague Dawley rats (plasma by LC-MS/MS); type: in vivo; conditions: mean; for AUC: read-out: Oral PK Parameters AUC, Prodrug
Protocol: (§1) We describe here PK results of prodrugs of PRX-002 (−) or (+) isomers. All doses of prodrugs were administered such that they were equivalent to 5 mg/kg of PRX-002 (−) or (+) for oral studies and 2 mg/kg PRX-002 (−) or (+) for intravenous studies in male Sprague-Dawley (MSD) rats. Higher doses of up to 10 or 15 mg/kg [again equivalent to PRX-002 (−)] were used in some studies (as specified)]. Formulation preparation, dose administration and time of sample collection was as follows.
Test item was weighed [5 mg equivalent dose of PRX-002 for prodrugs] and transferred to a graduated tube. Then 10 μL of Tween 80 was added and vortexed mixed until the test item was completely mixed. Small volume of 0.5% (w/v) carboxymethylcellulose in water solution was then added dropwise with continuous vortex mixing until a uniform suspension was obtained. The final volume was then made up to 10 mL with 0.5% (w/v) carboxymethylcellulose in water with final strength of 0.5 mg/mL. […] This formulation was freshly prepared before the administration to animals.
(§2) Adult male Sprague Dawley Rats aged 8-10 weeks were used for the study. Fasted animals were administered test item by oral route with a dose of 5 mg/kg body weight at dose volume of 10 mL/kg body weight. Under mild isoflurane anesthesia, blood specimens were collected by retro-orbital puncture method using capillary tubes into pre-labeled tubes containing anticoagulant (K2EDTA-2 mg/mL blood) during the next 24 hours of post dose as mentioned in below table. For blood sampling at multiple time points, right and left eyes were used alternatively for blood collection. Collected blood specimens were centrifuged at 4000 rpm, 4° C. for 10 minutes and plasma were separated and stored at −80° C. until analysis.
Blood was collected as outlined in Table 39.1 (oral).
(§3) Test item PRX-P4-003 was weighed and transferred to a graduated tube. Then 12.42 μL of Tween 80 was added and vortexed mixed until the test item was completely mixed. Small volume of 0.5% (w/v) Carboxymethylcellulose in water solution was then added dropwise with continuous vortex mixing until a uniform suspension was obtained. The final volume was then made up to 12.42 mL with 0.5% (w/v) Carboxymethylcellulose in water with final strength of 1.0 mgA/mL. […] This formulation was freshly prepared before the administration to animals.
as §2, with “with a PRX-P4-003” for “test item”, “10” for “5”
as §3, with “PRX-P5-006” for “PRX-P4-003”, “10” for “12.42”, “3.97 mg/mL.” for “1.0 mgA/mL.”
Adult male Sprague Dawley Rats aged 8-10 weeks were used for the study. Fasted animals were administered with a PRX-P5-006 by oral route with a dose of 15 mg/kg body weight at dose volume of 10 mL/kg body weight. […]

[2] = Single dose intravenous PK study in male Sprague Dawley rats (plasma by LC-MS/MS); type: in vivo; conditions: male, Sprague Dawley, rat; IV 2 mg/kg [equivalent to PRX-002 (−)], analyte: prodrug in plasma, mean; read-out: IV PK Parameters Tmax, Prodrug
Protocol: as §1
as §2, with “study. Animals” for “study. Fasted animals”, “administered the” for “administered”, “by Intravenous bolus” for “by oral”, “of 2” for “of 5”, “of 5.0” for “of 10”
Blood was collected as outlined in Table 39.2 (IV).
Test item PRX-P4-003 was weighed and transferred to a graduated tube. Then 600 μL of PEG 400 (v/v) was added and vortex mixed thoroughly until the test item was completely dissolved. Then 1.800 mL of Hydroxypropyl-β-cyclodextrin (HPβCD, 50% w/v) was added and vortex mixed thoroughly. The final volume was then made up to 3.600 mL with sterile water for injection (SWFI, v/v) with final formulation strength of 5.16 mgA/mL. […] This formulation was freshly prepared before the administration to animals.
as §2, with “study. Animals” for “study. Fasted animals”, “administered with a PRX-P4-003” for “administered test item”, “by Intravenous bolus” for “by oral”, “of 10” for “of 5”, “of 5” for “of 10”
Test item PRX-P5-006 was weighed and transferred to a graduated tube. Then 500 μL of DMSO (v/v) was added vortex mixed thoroughly until the test item was completely dissolved. Then 4000 μL of Hydroxypropyl-β-cyclodextrin (HPβCD, 50% w/v) was added and vortex mixed thoroughly. Then 2500 μL of PEG 400 (v/v) was added and vortex mixed thoroughly. The final volume was then made up to 10000 μL with sterile water for injection (SWFI, v/v) with final formulation strength of 3.97 mg/mL. […] This formulation was freshly prepared before the administration to animals.
as §2, with “Animals” for “Fasted animals”, “with a PRX-P5-006” for “test item”, “Intravenous bolus” for “oral”, “15” for “5”
The plasma concentrations of fencamfamine were measured by LC-MS/MS over time. […] The release of fencamfamine from the prodrugs varied depending on the chain length of the fatty acid linkers attached to fencamfamine. […]

[3] = male, Sprague Dawley, rat, in vivo, po, 5 mg/kg, oral 5 mg/kg [equivalent to PRX-002 (−)], analyte: prodrug in plasma, read-out: Oral PK Parameters Cmax, Prodrug
[4] = male, Sprague Dawley, rat, in vivo, oral 5 mg/kg [equivalent to PRX-002 (−)], analyte: prodrug in plasma
[5] = male, Sprague Dawley, rat, in vivo, oral 5 mg/kg [equivalent to PRX-002 (−)], analyte: prodrug in plasma, read-out: Oral PK Parameters Tmax, Prodrug

## CCN(C(=O)[C@@H](N)CCCCN)C1C2CCC(C2)C1c1ccccc1 (stereo partly drawn) [PRX-P1-005, N-Lysyl-(−)-N-ethyl-3-phenylbicyclo[2.2.1]heptan-2-amine]
[1]; [3]
  Cmax: 32 ± 7.5 ng/mL
[1]; [4]
  AUC: 42 ± 9.4 ng·h/mL
[1]; [5]
  Tmax: 30 min

## CCN(C(=O)[C@@H](N)Cc1ccccc1)C1C2CCC(C2)C1c1ccccc1 (stereo partly drawn) [PRX-P1-013, N-Phenylalanyl-(−)-N-ethyl-3-phenylbicyclo[2.2.1]heptan-2-amine]
[1]; [3]
  Cmax: 307 ± 49.6 ng/mL
[1]; [4]
  AUC: 678 ± 101 ng·h/mL
[1]; [5]
  Tmax: 42 ± 18 min

## CCCCCCCCCC(=O)OCOC(=O)N(CC)C1C2CCC(C2)C1c1ccccc1 (single isomer, unassigned) [PRX-P4-002, N-(Decanoyloxymethoxycarbonyl)-(−)-N-ethyl-3-phenylbicyclo[2.2.1]heptan-2-amine]
[1]; [5]
  Tmax: 0 min
[2]
  Tmax: 0 h

## CCN(C(=O)[C@@H](NC(=O)[C@@H](N)C(C)C)C(C)C)C1C2CCC(C2)C1c1ccccc1 (single isomer, unassigned) [PRX-P6-011, N-(Valyl-valyl)-(+)-N-ethyl-3-phenylbicyclo[2.2.1]heptan-2-amine]
[1]; PRX-P6-011 oral 5 mg/kg
  AUC% extrap of PRX-P6-011: 23.190 ± 3.6640%
[1]; [3]
  Cmax: 82.2 ± 30.9 ng/mL
[1]; male, Sprague Dawley, rat, in vivo, PRX-P6-011 oral 5 mg/kg b.w., 0.00 h, read-out: Plasma concentrations of PRX-P6-011
  concentration at 0 h: 0 ng/mL
[1]; male, Sprague Dawley, rat, in vivo, PRX-P6-011 oral 5 mg/kg b.w., 0.08 h, read-out: Plasma concentrations of PRX-P6-011
  concentration at 0.08 h: 75.9 ng/mL
[1]; male, Sprague Dawley, rat, in vivo, PRX-P6-011 oral 5 mg/kg b.w., 4.00 h, read-out: Plasma concentrations of PRX-P6-011
  concentration at 4 h: 0 ng/mL
[1]; male, Sprague Dawley, rat, in vivo, PRX-P6-011 oral 5 mg/kg b.w., 6.00 h, read-out: Plasma concentrations of PRX-P6-011
  concentration at 6 h: 0 ng/mL
[1]; male, Sprague Dawley, rat, in vivo, PRX-P6-011 oral 5 mg/kg b.w., 24.00 h, read-out: Plasma concentrations of PRX-P6-011
  concentration at 24 h: 0 ng/mL
[1]; [4]
  AUC: 44.2 ± 17.1 ng·h/mL
[1]; [5]
  Tmax: 8.4 ± 6 min
[1]; male, Sprague-Dawley, rat, in vivo, po, 5 mg/kg, PRX-P6-011 oral 5 mg/kg, read-out: AUCinf of PRX-P6-011
  AUC(0-inf): 57.3 ± 21.3 ng·h/mL
[1]; male, Sprague-Dawley, rat, in vivo, po, 5 mg/kg, PRX-P6-011 oral 5 mg/kg, read-out: AUClast of PRX-P6-011
  AUC(0-t): 44.2 ± 17.1 ng·h/mL
[1]; male, Sprague-Dawley, rat, in vivo, po, 5 mg/kg, PRX-P6-011 oral 5 mg/kg, read-out: Cmax of PRX-P6-011
  Cmax: 82.2 ± 30.9 ng/mL
[1]; male, Sprague-Dawley, rat, in vivo, po, 5 mg/kg, PRX-P6-011 oral 5 mg/kg, read-out: MRTlast of PRX-P6-011
  MRT last: 34.5 ± 2.22 min
[1]; male, Sprague-Dawley, rat, in vivo, po, 5 mg/kg, PRX-P6-011 oral 5 mg/kg, read-out: T1/2 of PRX-P6-011 (converted)
  half-life: 70.3 ± 12.7 min
[1]; male, Sprague-Dawley, rat, in vivo, PRX-P6-011 oral 5 mg/kg b.w., 0.25 h, read-out: Plasma concentrations of PRX-P6-011
  concentration at 0.25 h: 62.8 ng/mL
[1]; male, Sprague-Dawley, rat, in vivo, PRX-P6-011 oral 5 mg/kg b.w., 0.50 h, read-out: Plasma concentrations of PRX-P6-011
  concentration at 0.5 h: 20.8 ng/mL
[1]; male, Sprague-Dawley, rat, in vivo, PRX-P6-011 oral 5 mg/kg b.w., 1.00 h, read-out: Plasma concentrations of PRX-P6-011
  concentration at 1 h: 13 ng/mL
[1]; male, Sprague-Dawley, rat, in vivo, PRX-P6-011 oral 5 mg/kg b.w., 2.00 h, read-out: Plasma concentrations of PRX-P6-011
  concentration at 2 h: 7.87 ng/mL
[1]; male, Sprague-Dawley, rat, in vivo, PRX-P6-011 oral 5 mg/kg, read-out: Tmax of PRX-P6-011
  Tmax: 8.22 ± 5.88 min

## CCCCCCCCCC(=O)OC(C)OC(=O)N(CC)C1C2CCC(C2)C1c1ccccc1 (single isomer, unassigned) [PRX-P5-002, N-(1-Decanoyloxyethoxycarbonyl)-(−)-N-ethyl-3-phenylbicyclo[2.2.1]heptan-2-amine]
[1]; [5]
  Tmax: 0 min
[2]
  Tmax: 0 h
